# Like-named read-outs stand apart in the source and are kept apart here.
# Key:
# [1] = In vitro stability of drug-linkers in rat liver lysosomal lysate (parent and released dexamethasone, LC-MS/MS)
# Experimental: Rat Liver lysosomes were available commercially with a pool of 6 animals. All linker compounds were solubilized in DMSO to form each 10 mM stock solution. Dosing solution for each linker was prepared by serial dilution of each stock solution using 1:3 acetonitrile: water. All solutions were kept on ice during the experiment.
# Rat lysosomes were pre-warmed in a 37° C. water bath in an appropriate volume to collect samples over a time course from 0 minutes through 6 hours. Incubating lysosomes were mixed well just prior to sampling to give a homogenous mixture. Aliquots of lysosomes were removed at appropriate time points, added to cold stopping solution, which was methanol containing an appropriate internal standard, and mixed rigorously. The samples were centrifuged at 4000 RPM for 10 minutes after which equal volumes of supernatant were diluted with cold deionized water. The samples were ready for analysis.
# (§1) A Thermo LX-2 ultra-performance liquid chromatography system coupled with a Sciex API5000 triple quadrupole mass spectrometer was used for the analysis. The payload and drug-linkers were retained and separated by a C18 column and detected by the mass spectrometer. […] Samples were kept in cold stack set at 5° C.
# [2] = In vitro stability of drug-linkers in human whole blood (parent and released dexamethasone, LC-MS/MS)
# Experimental: General Experimental Procedure Human Blood Incubation Human blood was collected the morning of the experiment from at least 3 individuals using K2EDTA as the anticoagulant. An equal volume from each individual was combined for use in the experiment. The experiment started no more than 2 hours after the blood collection. All drug-linker conjugates were solubilized in DMSO to form each 10 mM stock solution. Dosing solution for each linker was prepared by serial dilution of each stock solution using 1:3 acetonitrile:water. All solutions were kept on ice during the experiment.
# Human blood was pre-warmed in a 37° C. water bath in an appropriate volume to collect samples over a time course from 0 through 6 hours. Incubating blood was mixed well just prior to sampling to give a homogenous mixture. Aliquots of blood were removed at appropriate time points, added to cold stopping solution, which was methanol containing an appropriate internal standard, and mixed rigorously. The samples were centrifuged at 4000 RPM for 10 minutes after which equal volumes of the supernatant fractions were diluted with cold deionized water. The samples were then ready for analysis.
# as §1
# [3] = not given; remark: listed apart in the source
compound,measurement,setting,value
"C[C@@H]1C[C@H]2[C@@H]3CCC4=CC(=O)C=C[C@]4(C)[C@@]3(F)[C@@H](O)C[C@]2(C)[C@@]1(O)C(=O)CO [Dexamethasone, dexamethasone, reference compound]",Calculated Conc. for each compound in rat lysomal lysate,"[1]; 0 m, 37° C.",1456.4 nM
same,Calculated Conc. for each compound in rat lysomal lysate,"[1]; 5 m, 37° C.",1851.2 nM
same,Calculated Conc. for each compound in rat lysomal lysate,"[1]; 10 m, 37° C.",1640.8 nM
same,Calculated Conc. for each compound in rat lysomal lysate,"[1]; 15 m, 37° C.",1666.7 nM
same,Calculated Conc. for each compound in rat lysomal lysate,"[1]; 30 m, 37° C.",1602.6 nM
same,Calculated Conc. for each compound in rat lysomal lysate,"[1]; 1 hr, 37° C.",1576.8 nM
same,Calculated Conc. for each compound in rat lysomal lysate,"[1]; 2 hr, 37° C.",1681.0 nM
same,Calculated Conc. for each compound in rat lysomal lysate,"[1]; 3 hr, 37° C.",1689.7 nM
same,Calculated Conc. for each compound in rat lysomal lysate,"[1]; 6 hr, 37° C.",1689.8 nM
same,Calculated Conc. for each compound in rat lysomal lysate,[1]; Matrix spiking (lysosomes pretreated with stopping reagent),2059.0 nM
same,Calculated Conc. for each compound in human whole blood,"[2]; 0 m, 37° C.",1687 nM
same,Calculated Conc. for each compound in human whole blood,"[2]; 20 m, 37° C.",2409 nM
same,Calculated Conc. for each compound in human whole blood,"[2]; 1 hr, 37° C.",2224 nM
same,Calculated Conc. for each compound in human whole blood,"[2]; 3 hr, 37° C.",1502 nM
same,Calculated Conc. for each compound in human whole blood,"[2]; 6 hr, 37° C.",2792 nM
same,Calculated Conc. for each compound in human whole blood,"[2]; Matrix spiking (time 0 sample, blood pretreated with stopping reagent)",2939 nM
"C[C@@H]1C[C@H]2[C@@H]3CCC4=CC(=O)C=C[C@]4(C)[C@@]3(F)[C@@H](O)C[C@]2(C)[C@@]1(O)C(=O)COP(=O)(O)OCCNC(=O)COC1C#CCCCCC1 (stereo partly drawn) [Drug Linker 4-3, 2-(2-(cyclooct-2-yn-1-yloxy)acetamido)ethyl (2-((8S,9R,10S,11S,13S,14S,16R,17R)-9-fluoro-11,17-dihydroxy-10,13,16-trimethyl-3-oxo-6,7,8,9,10,11,12,13,14,15,16,17-dodecahydro-3H-cyclopenta[a]phenanthren-17-yl)-2-oxoethyl) hydrogen phosphate]",Calculated Conc. for dexamethasone rat lysomeal lysate,0 min,0.9 nM
same,Calculated Conc. for each compound in rat lysomal lysate,0 min,888.8 nM
same,Calculated Conc. for dexamethasone rat lysomeal lysate,5 min,14.5 nM
same,Calculated Conc. for each compound in rat lysomal lysate,5 min,1156.1 nM
same,Calculated Conc. for dexamethasone rat lysomeal lysate,10 min,14.2 nM
same,Calculated Conc. for each compound in rat lysomal lysate,10 min,983.4 nM
same,Calculated Conc. for dexamethasone rat lysomeal lysate,15 min,22.3 nM
same,Calculated Conc. for each compound in rat lysomal lysate,15 min,1032.6 nM
same,Calculated Conc. for dexamethasone rat lysomeal lysate,30 min,28.9 nM
same,Calculated Conc. for each compound in rat lysomal lysate,30 min,980.1 nM
same,Calculated Conc. for dexamethasone rat lysomeal lysate,1 h,41.6 nM
same,Calculated Conc. for each compound in rat lysomal lysate,1 h,882.4 nM
same,Calculated Conc. for dexamethasone rat lysomeal lysate,2 h,72.5 nM
same,Calculated Conc. for each compound in rat lysomal lysate,2 h,880.1 nM
same,Calculated Conc. for dexamethasone rat lysomeal lysate,3 h,90.2 nM
same,Calculated Conc. for each compound in rat lysomal lysate,3 h,903.8 nM
same,Calculated Conc. for dexamethasone rat lysomeal lysate,6 h,141.9 nM
same,Calculated Conc. for each compound in rat lysomal lysate,6 h,858.9 nM
same,Calculated Conc. for each compound in human whole blood,[3]; 0 min,1539 nM
same,Calculated Conc. for dexamethasone in human whole blood,[3]; 20 min,0 nM
same,Calculated Conc. for each compound in human whole blood,[3]; 20 min,1861 nM
same,Calculated Conc. for dexamethasone in human whole blood,[3]; 1 h,0 nM
same,Calculated Conc. for each compound in human whole blood,[3]; 1 h,1619 nM
same,Calculated Conc. for dexamethasone in human whole blood,[3]; 3 h,1 nM
same,Calculated Conc. for each compound in human whole blood,[3]; 3 h,1677 nM
same,Calculated Conc. for dexamethasone in human whole blood,[3]; 6 h,3 nM
same,Calculated Conc. for each compound in human whole blood,[3]; 6 h,2040 nM
same,rate of dexamethasone release in rat lysosomal extract (in words),"[1]; compared with 3-4, 5-3 releasing faster than 4-3",more slowly released
